“And” between values parts separate entries of the source, which are not always exact repeats. Equal entries are not always repeated. Where two headings read alike, the source gives them in different places.
Key:
Experiment in all cases: in vitro cleavage assay, Aβ40 production by AlphaLISA
Assay type in all cases: biochemical
[1] = target: T1, PS1 L282I γ-secretase complex (Homo sapiens, UniProt P49768, L282I); conditions: for remaining activity at 0.002 µM / remaining activity at 0.01 µM / remaining activity at 0.04 µM / remaining activity at 0.2 µM / remaining activity at 1 µM / remaining activity at 10 µM: 4 h; for remaining activity at 0.002 µM / remaining activity at 0.01 µM / remaining activity at 0.04 µM / remaining activity at 0.2 µM / remaining activity at 1 µM / remaining activity at 10 µM / Caculated Aβ40 production / raw data from α-Lisa reading: PS1 L282I
T1 construct: made in house
Experimental: (§1) In total we generated six variants, including single and double residue swapping of Thr281/Leu282 in PS1 with Pro287/Ile288 in PS2, respectively. MRK-560 response to the six PS1/PS2 mutant-containing complexes, each purified to homogeneity, was examined in the in vitro cleavage assay (Fig. 4). All proteins used for the activity assay were sub-cloned, expressed and purified as described. Protein concentration was determined using the Bradford method. […] The cleavage reaction was conducted at 37 °C for 4 h. The cleaved products of these substrates were detected using a monoclonal antibody (1:1000 dilution, CW0299, CWBio) against the C-terminal Myc tag. Aβ40 production was detected using the AlphaLISA assay (PerkinElmer) as described. The IC50 values and the inhibition curves were calculated using Prism 8.0. Statistical analysis of Aβ40 was performed using Prism 8 (GraphPad Software, San Diego, CA, USA). IC50 were determined by a four-parameter logistic regression. The statistical details can be found in Figs. 1, 4 and legends. Data are expressed as mean ± SD.

[2] = target: T2, PS1 T281P γ-secretase complex (Homo sapiens, UniProt P49768, T281P); conditions: for remaining activity at 0.002 µM / remaining activity at 0.01 µM / remaining activity at 0.04 µM / remaining activity at 0.2 µM / remaining activity at 1 µM / remaining activity at 10 µM: 4 h; for remaining activity at 0.002 µM / remaining activity at 0.01 µM / remaining activity at 0.04 µM / remaining activity at 0.2 µM / remaining activity at 1 µM / remaining activity at 10 µM / Caculated Aβ40 production / raw data from α-Lisa reading: PS1 T281P
T2 construct: made in house
Experimental: as §1

[3] = target: T3, PS1 TL281-282PI γ-secretase complex (Homo sapiens, UniProt P49768, L282I/T281P); conditions: for remaining activity at 0.002 µM: MRK-560 2 nM; for remaining activity at 0.01 µM: MRK-560 10 nM; for remaining activity at 0.04 µM: MRK-560 40 nM; for remaining activity at 0.2 µM: MRK-560 200 nM; for remaining activity at 1 µM: MRK-560 1 μM
T3 construct: made in house
Experimental: as §1

[4] = MRK-560 2 nM, mean of 3 replicates, read-out: Normalized production (control=1), Mean
[5] = MRK-560 2 nM, replicates, read-out: Normalized production (control=1)
[6] = MRK-560 10 nM, mean of 3 replicates, read-out: Normalized production (control=1), Mean
[7] = MRK-560 10 nM, replicates, read-out: Normalized production (control=1)
[8] = MRK-560 40 nM, mean of 3 replicates, read-out: Normalized production (control=1), Mean
[9] = MRK-560 40 nM, replicates, read-out: Normalized production (control=1)
[10] = MRK-560 200 nM, mean of 3 replicates, read-out: Normalized production (control=1), Mean
[11] = MRK-560 200 nM, replicates, read-out: Normalized production (control=1)
[12] = MRK-560 1 μM, mean of 3 replicates, read-out: Normalized production (control=1), Mean
[13] = MRK-560 1 μM, replicates, read-out: Normalized production (control=1)
[14] = MRK-560 10 μM, mean of 3 replicates, read-out: Normalized production (control=1), Mean
[15] = MRK-560 10 μM, replicates, read-out: Normalized production (control=1)
[16] = 4 h, PS1TL 281 282PI, mean of 3 replicates, read-out: Normalized production (control=1), Mean
[17] = 4 h, PS1TL 281 282PI, replicates, read-out: Normalized production (control=1)

O=S(=O)(NC1CCC(c2cc(F)ccc2F)(S(=O)(=O)c2ccc(Cl)cc2)CC1)C(F)(F)F (stereo not drawn) [MRK-560, N-[cis-4-[(4-chlorophenyl)sulfonyl]-4-(2,5-difluorophenyl)cyclohexyl]-1,1,1-trifluoromethanesulfonamide]
IC50 [1]: 90 ± 10 nM | remaining activity at 0.002 µM [1, 4]: 111% | remaining activity at 0.002 µM [1, 5]: 110% | remaining activity at 0.01 µM [1, 6]: 108% | remaining activity at 0.01 µM [1, 7]: 104% | remaining activity at 0.04 µM [1, 8]: 83.5% | remaining activity at 0.04 µM [1, 9]: 83.1% | remaining activity at 0.2 µM [1, 10]: 28.8% | remaining activity at 0.2 µM [1, 11]: 28.2% | remaining activity at 1 µM [1, 12]: 3.17% | remaining activity at 1 µM [1, 13]: 3.28% | remaining activity at 10 µM [1, 14]: 0.83% | remaining activity at 10 µM [1, 15]: 0.9% | Caculated Aβ40 production ([1]; MRK-560 2 nM, replicates): 281.9088 and 286.0465 and 285.6579 | raw data from α-Lisa reading ([1]; MRK-560 2 nM, replicates): 44163 and 44760 and 44704 | Caculated Aβ40 production ([1]; MRK-560 10 nM, replicates): 268.0187 and 289.2618 and 277.4973 | raw data from α-Lisa reading ([1]; MRK-560 10 nM, replicates): 42149 and 45223 and 43525 | Caculated Aβ40 production ([1]; MRK-560 40 nM, replicates): 213.5518 and 216.6350 and 213.7318 | raw data from α-Lisa reading ([1]; MRK-560 40 nM, replicates): 34102 and 34564 and 34129 | Caculated Aβ40 production ([1]; MRK-560 200 nM, replicates): 72.5045 and 76.2274 and 73.8042 | raw data from α-Lisa reading ([1]; MRK-560 200 nM, replicates): 12089 and 12693 and 12300 | Caculated Aβ40 production ([1]; MRK-560 1 μM, replicates): 8.4328 and 8.0651 and 7.9702 | raw data from α-Lisa reading ([1]; MRK-560 1 μM, replicates): 1487 and 1425 and 1409 | Caculated Aβ40 production ([1]; MRK-560 10 μM, replicates): 2.3045 and 1.9913 and 2.1331 | raw data from α-Lisa reading ([1]; MRK-560 10 μM, replicates): 452 and 399 and 423 | IC50 [2]: 55 ± 6 nM | remaining activity at 0.002 µM [2, 4]: 99.3% | remaining activity at 0.002 µM [2, 5]: 100% | remaining activity at 0.01 µM [2, 6]: 92.8% | remaining activity at 0.01 µM [2, 7]: 94.3% | remaining activity at 0.04 µM [2, 8]: 62.2% | remaining activity at 0.04 µM [2, 9]: 65.5% | remaining activity at 0.2 µM [2, 10]: 10.6% | remaining activity at 0.2 µM [2, 11]: 11% | remaining activity at 1 µM [2, 12]: 1.23% | remaining activity at 1 µM [2, 13]: 1.29% | remaining activity at 10 µM [2, 14]: 0.61% | remaining activity at 10 µM [2, 15]: 0.59% | Caculated Aβ40 production ([2]; MRK-560 2 nM, replicates): 345.9981 and 336.9974 and 315.8225 | raw data from α-Lisa reading ([2]; MRK-560 2 nM, replicates): 52003 and 49017 and 53262 | Caculated Aβ40 production ([2]; MRK-560 10 nM, replicates): 309.2203 and 316.1610 and 308.6161 | raw data from α-Lisa reading ([2]; MRK-560 10 nM, replicates): 49065 and 47993 and 48079 | Caculated Aβ40 production ([2]; MRK-560 40 nM, replicates): 209.7683 and 219.6031 and 196.3837 | raw data from α-Lisa reading ([2]; MRK-560 40 nM, replicates): 35008 and 31515 and 33534 | Caculated Aβ40 production ([2]; MRK-560 200 nM, replicates): 35.0895 and 36.8617 and 34.7461 | raw data from α-Lisa reading ([2]; MRK-560 200 nM, replicates): 6240 and 5889 and 5946 | Caculated Aβ40 production ([2]; MRK-560 1 μM, replicates): 4.0253 and 4.3330 and 4.0016 | raw data from α-Lisa reading ([2]; MRK-560 1 μM, replicates): 795 and 739 and 743 | Caculated Aβ40 production ([2]; MRK-560 10 μM, replicates): 2.0149 and 1.9676 and 2.1390 | raw data from α-Lisa reading ([2]; MRK-560 10 μM, replicates): 395 and 424 and 403 | IC50 [3]: 195 ± 16 nM | remaining activity at 0.002 µM [3, 16]: 116% | remaining activity at 0.002 µM [3, 17]: 115% | remaining activity at 0.01 µM [3, 16]: 112% | remaining activity at 0.01 µM [3, 17]: 113% | remaining activity at 0.04 µM [3, 16]: 105% | remaining activity at 0.04 µM [3, 17]: 103% | remaining activity at 0.2 µM [3, 16]: 57.2% | remaining activity at 0.2 µM [3, 17]: 59.1% | remaining activity at 1 µM [3, 16]: 11.1% | remaining activity at 1 µM [3, 17]: 11% | remaining activity at 10 µM ([3]; 4 h, PS1TL 281 282PI, MRK-560 10 μM, mean of 3 replicates, read-out: Normalized production (control=1), Mean): 1.33%
